Test results taken from the NIST ThermoML archive (doi:10.1021/je300017m).

Experiment: mn = molality of the nth substance listed, in mol/kg
Conditions: 101 kPa, Liquid

C[S+](C)[O-] [dimethyl sulfoxide] + CCCCCCCCCCn1cc[n+](C)c1.[Br-]
m2 = 0
Conditions | mass density [kg/m3]
293.15 K | 1100.22
303.15 K | 1090.37
308.15 K | 1085.42
313.15 K | 1080.45

CCCCCCCCCCCCn1cc[n+](C)c1.[Br-] [1-dodecyl-3-methylimidazolium bromide] + C[S+](C)[O-]
Conditions | mass density [kg/m3]
293.15 K, m1 = 0.00397 | 1100.23
293.15 K, m1 = 0.00623 | 1100.24
293.15 K, m1 = 0.00818 | 1100.25
293.15 K, m1 = 0.01037 | 1100.26
293.15 K, m1 = 0.01216 | 1100.26
293.15 K, m1 = 0.01421 | 1100.27
293.15 K, m1 = 0.01656 | 1100.28
293.15 K, m1 = 0.01857 | 1100.29
293.15 K, m1 = 0.02122 | 1100.3
293.15 K, m1 = 0.02403 | 1100.31
303.15 K, m1 = 0.00371 | 1090.4
303.15 K, m1 = 0.00614 | 1090.4
303.15 K, m1 = 0.00792 | 1090.41
303.15 K, m1 = 0.00994 | 1090.42
303.15 K, m1 = 0.0118 | 1090.43
303.15 K, m1 = 0.01399 | 1090.44
303.15 K, m1 = 0.01604 | 1090.45
303.15 K, m1 = 0.01817 | 1090.46
303.15 K, m1 = 0.01986 | 1090.47
303.15 K, m1 = 0.02211 | 1090.48
308.15 K, m1 = 0.00436 | 1085.43
308.15 K, m1 = 0.00683 | 1085.43
308.15 K, m1 = 0.00903 | 1085.45
308.15 K, m1 = 0.01149 | 1085.46
308.15 K, m1 = 0.01349 | 1085.47
308.15 K, m1 = 0.01606 | 1085.48
308.15 K, m1 = 0.01812 | 1085.49
308.15 K, m1 = 0.02147 | 1085.51
308.15 K, m1 = 0.02348 | 1085.52
308.15 K, m1 = 0.02922 | 1085.55
313.15 K, m1 = 0.00453 | 1080.48
313.15 K, m1 = 0.00685 | 1080.5
313.15 K, m1 = 0.00907 | 1080.51
313.15 K, m1 = 0.01123 | 1080.52
313.15 K, m1 = 0.01315 | 1080.53
313.15 K, m1 = 0.01625 | 1080.55
313.15 K, m1 = 0.01812 | 1080.56
313.15 K, m1 = 0.02054 | 1080.57
313.15 K, m1 = 0.02269 | 1080.59

CCCCCCCCn1cc[n+](C)c1.[Br-] [1-methyl-3-octylimidazolium bromide] + C[S+](C)[O-]
Conditions | mass density [kg/m3]
293.15 K, m1 = 0.00222 | 1100.28
293.15 K, m1 = 0.00411 | 1100.33
293.15 K, m1 = 0.00639 | 1100.39
293.15 K, m1 = 0.00868 | 1100.45
293.15 K, m1 = 0.01098 | 1100.51
293.15 K, m1 = 0.01287 | 1100.56
293.15 K, m1 = 0.0156 | 1100.63
293.15 K, m1 = 0.01754 | 1100.68
293.15 K, m1 = 0.01986 | 1100.74
293.15 K, m1 = 0.0222 | 1100.8
303.15 K, m1 = 0.00254 | 1090.41
303.15 K, m1 = 0.00588 | 1090.5
303.15 K, m1 = 0.00888 | 1090.58
303.15 K, m1 = 0.01151 | 1090.65
303.15 K, m1 = 0.01491 | 1090.74
303.15 K, m1 = 0.01758 | 1090.81
303.15 K, m1 = 0.02064 | 1090.89
303.15 K, m1 = 0.02333 | 1090.96
303.15 K, m1 = 0.02681 | 1091.05
303.15 K, m1 = 0.03031 | 1091.14
308.15 K, m1 = 0.00216 | 1085.43
308.15 K, m1 = 0.00471 | 1085.5
308.15 K, m1 = 0.00692 | 1085.56
308.15 K, m1 = 0.00913 | 1085.62
308.15 K, m1 = 0.01398 | 1085.75
308.15 K, m1 = 0.01624 | 1085.81
308.15 K, m1 = 0.01888 | 1085.88
308.15 K, m1 = 0.02155 | 1085.95
308.15 K, m1 = 0.02348 | 1086
308.15 K, m1 = 0.02616 | 1086.07
313.15 K, m1 = 0.00623 | 1080.57
313.15 K, m1 = 0.01004 | 1080.67
313.15 K, m1 = 0.01351 | 1080.76
313.15 K, m1 = 0.01667 | 1080.84
313.15 K, m1 = 0.01987 | 1080.92
313.15 K, m1 = 0.02275 | 1080.99
313.15 K, m1 = 0.02686 | 1081.09
313.15 K, m1 = 0.02946 | 1081.15
313.15 K, m1 = 0.03287 | 1081.23
313.15 K, m1 = 0.03631 | 1081.31

C[S+](C)[O-] [dimethyl sulfoxide] + CCCCn1cc[n+](C)c1.[Br-]
m2 = 0
Conditions | mass density [kg/m3]
293.15 K | 1100.22
303.15 K | 1090.36
308.15 K | 1085.41
313.15 K | 1080.45
